Measured values taken from patent publication US5633227A, “Secretory leukocyte protease inhibitor as an inhibitor of tryptase” (Miles, Inc., priority 1994, dated 1997).
Ends that are not written are not given here. * marks the point of attachment. Dansyl = CN(C)c1cccc2c(S(=O)(=O)*)cccc12

Columns and labels:
[1] = biological target: tryptase; test: GPK-AMC assay for tryptase activity (Dixon plot); type: biochemical, human; details: 20 and 40 μM GPK-AMC; 37° C.; read-out: Ki for inhibition of tryptase catalyzed cleavage of GPK-AMC
Method: Tryptase activity was measured according to the procedure of Schwartz, et al., J. Biol. Chem., 261, 7372-7379 (1986) , with minor modifications, using Gly-Pro-Lys-Aminomethylcoumarin (GPK-AMC) as a substrate. The reaction was performed in assay buffer (0.1M Tris, pH 8.0, 10 μg/ml heparin) at room temperature in a 96-well microtiter plate (Perkin-Elmer, Norwalk, Conn.). The amount of coumarin produced by tryptase was determined by measuring the fluorescence (ex=372 nm, em=432 nm) on a Perkin-Elmer LS-50B fluorimeter equipped with a plate reader. 50 μl of tryptase (final concentration of 333 pM) was mixed with either 50 μl of the sample to be tested or with assay buffer and incubated for 5 min. at room temperature. […] The fluorescence intensity was measured every 5 minutes. For samples that were being tested for modulators of tryptase activity, the % inhibition for each fraction was determined by:
Inhibitory activity against tryptase and bovine trypsin was measured using Gly-Pro-Lys-aminomethylcoumarin as a substrate. […] The amount of coumarin produced was determined by measuring the fluorescence (ex=370 nm, em=432 nm) on a Perkin-Elmer LS-50B fluorimeter. […] The reaction was started by the addition of the substrate GPK-AMC (20 or 40 μM final) and the increase in fluorescence was measured over a 2 minute period. […]

[2] = test system: human mast cell tryptase; test: VIP assay for tryptase activity (Dns-VIP hydrolysis, HPLC/fluorescence, Dixon plot); type: biochemical; details: 0.4 and 0.8 μM VIP; 12.5 pM tryptase; 37° C.; read-out: Ki for inhibition of the formation of Dns-VIP-(1-14)
Method: In a typical assay, mast cell tryptase (12.5 pM) was incubated at 37° C. with dansyl-VIP (0.2-2 μM) in 100 mM Tris-HCl (pH 8.0) containing 1 μg/ml porcine mucosal heparin and 0.02% Triton X-100 in a final volume of 2.0 ml. To some samples, secretory leukocyte protease inhibitor was added to a final concentration of between 0 and 107 nM. The tryptase was pre-incubated with the SLPI, if added, for 5 min. at 37° C. before initiating the reaction by the addition of Dns-VIP. Aliquots (250 μl) were removed at 0, 2.5, 5.0, 7.5, 10, and 20 minutes to micro-vials (Sunbrokers) and the reaction terminated by the addition of TFA to a final concentration of 3% (v/v). The acidified reaction mixture was subjected to chromatography on a C-18 reverse-phase column (Vydac, 5 micron, 0.46×25 cm). Peptide hydrolysis was monitored by HPLC using a Hewlett Packard HP1090 unit complete with binary solvent delivery and autoinjection capability. Fluorescent detection (postcolumn) was performed with an inline Gilson Model 121 filter fluorimeter (excitation at 310-410 nm, emission at 480-520 nm). Dns-VIP fragments were separated from any unconverted Dns-VIP using a linear gradient of 69:31 (v/v) to 50:50 (v/v) C:D over 5.5 minutes (C=100 mM sodium acetate, pH 6.5 plus 0.2% sodium azide, D=80% ACN in water), with return to 69:31 (v/v) C:D at 6.5 minutes. Chromatography was performed at 1.0 ml/min at 25° C. […]

[3] = test system: human mast cell tryptase; test: Kinetic parameters for enzymatic cleavage of Dns-VIP by tryptase; type: biochemical
Method: In a typical assay, mast cell tryptase (12.5 pM) was incubated at 37° C. with dansyl-VIP (0.2-2 μM) in 100 mM Tris-HCl (pH 8.0) containing 1 μg/ml porcine mucosal heparin and 0.02% Triton X-100 in a final volume of 2.0 ml. To some samples, secretory leukocyte protease inhibitor was added to a final concentration of between 0 and 107 nM. The tryptase was pre-incubated with the SLPI, if added, for 5 min. at 37° C. before initiating the reaction by the addition of Dns-VIP. Aliquots (250 μl) were removed at 0, 2.5, 5.0, 7.5, 10, and 20 minutes to micro-vials (Sunbrokers) and the reaction terminated by the addition of TFA to a final concentration of 3% (v/v). The acidified reaction mixture was subjected to chromatography on a C-18 reverse-phase column (Vydac, 5 micron, 0.46×25 cm). Peptide hydrolysis was monitored by HPLC using a Hewlett Packard HP1090 unit complete with binary solvent delivery and autoinjection capability. Fluorescent detection (postcolumn) was performed with an inline Gilson Model 121 filter fluorimeter (excitation at 310-410 nm, emission at 480-520 nm). Dns-VIP fragments were separated from any unconverted Dns-VIP using a linear gradient of 69:31 (v/v) to 50:50 (v/v) C:D over 5.5 minutes (C=100 mM sodium acetate, pH 6.5 plus 0.2% sodium azide, D=80% ACN in water), with return to 69:31 (v/v) C:D at 6.5 minutes. Chromatography was performed at 1.0 ml/min at 25° C. The N-terminal fluorescent products were identified by subjecting known VIP fragments (see above) to chromatography under identical conditions.
The kinetic parameters Km, kcat, and Vmax for the initial rate of formation of Dns-VIP-(1-14) and Dns-VIP-(1-20), as well as the initial rate of disappearance of full-length Dns-VIP were determined. The initial velocity for the formation of Dns-VIP-(1-20) also contains the rate for the formation of Dns-VIP-(1-21) since it appears as a shoulder on the Dns-VIP-(1-20) peak within the elution profile. […] The effect of salt concentration on the initial rates of cleavage of Dns-VIP was measured in 150 mM NaCl and 10 mM CaCl2. In all cases, the kcat/Km values decreased with increasing salt concentration. […] However, this effect was offset by an increase in all of the Km values. […] The results for 10 mM CaCl2 were similar in that Km and Vmax values increased and kcat/Km ratios decreased.
Initial reaction velocities were obtained from a linear least squares analysis of the linear part of a plot of the number of picomoles of each product produced vs. time and where less than 10% of the total Dns-VIP was consumed. To determine the Ki value, a Dixon plot of the form 1/V vs. [I] was made for data collected at two different concentrations of VIP, where V is the velocity (pmoles/min) and [I] is the concentration of SLPI used.

[4] = biological target: T1, bovine trypsin (Bos taurus, UniProt P00760); test: GPK-AMC assay for trypsin activity (Dixon plot); type: biochemical; details: at a concentration of 1800 nM
T1 sequence (P00760 24-246): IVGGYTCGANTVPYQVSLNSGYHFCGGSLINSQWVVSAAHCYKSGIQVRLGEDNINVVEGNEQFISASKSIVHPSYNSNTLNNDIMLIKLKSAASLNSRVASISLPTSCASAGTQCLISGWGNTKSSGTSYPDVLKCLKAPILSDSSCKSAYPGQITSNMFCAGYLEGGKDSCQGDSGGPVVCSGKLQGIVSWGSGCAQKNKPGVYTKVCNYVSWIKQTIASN
Method: Inhibitory activity against tryptase and bovine trypsin was measured using Gly-Pro-Lys-aminomethylcoumarin as a substrate. The reaction was performed in assay buffer that consisted of 0.1M Tris (pH 8.0), 1 μg/ml heparin, 0.02% Triton X-100, with 20 mM CaCl2 included only in the trypsin assays. The amount of coumarin produced was determined by measuring the fluorescence (ex=370 nm, em=432 nm) on a Perkin-Elmer LS-50B fluorimeter. To measure tryptase activity, 12 μl of a 1 nM solution of tryptase (tetramer) was incubated with either the N- (34 to 650 nM final) or the C-terminal (7-150 nM final) domain of SLPI in 1.0 ml of assay buffer for 5 minutes at 37° C. The reaction was started by the addition of the substrate GPK-AMC (20 or 40 μM final) and the increase in fluorescence was measured over a 2 minute period. In order to measure trypsin activity, 3.3 μl of a 10 μg/ml solution was incubated with either the N- or C- terminal domains of SLPI, and assayed using both 10 and 20 μM GPK-AMC. To determine Ki values, Dixon plots of the form 1/V vs [I] were constructed.

## C-terminal domain: C-terminal domain of SLPI, amino acids 50-107, from formic acid cleavage of recombinant SLPI (PVDTPNPTRRKPGKCPVTYGQCLMLNPPNFCEMDGQCKRDLKCCMGMCGKSCVSPVKA)
[1]
  Ki: 4.8 nM
[2]
  Ki: 1.6 nM

## Dns-VIP-(1-14): Dansyl-VIP fragment of amino acids 1-14 formed by tryptase cleavage after Arg-14 (Dansyl-HSDAVFTDNYTRLR; UniProt P01282 125-138, looked up, fragment)
[3]; 10 mM CaCl2 vs no addition
  decrease in the kcat/Km ratio: 9 fold
[3]; 150 mM NaCl vs no addition
  decrease in the kcat/Km ratio: 16 fold
  increase in Km: 59 fold
  increase in Vmax: 4 fold
[3]; Addition: 10 mM CaCl2
  Km: 4.1 µM
  Vmax: 4.5 pmol/min/mg
  kcat/Km: 0.25 M^-1 sec^1 × 10^7
[3]; Addition: 150 mM NaCl
  Km: 7.7 µM
  Vmax: 4.9 pmol/min/mg
  kcat/Km: 0.14 M^-1 sec^1 × 10^7
[3]; Addition: None
  Km: 0.1 µM
  Vmax: 1.3 pmol/min/mg
  kcat/Km: 2.3 M^-1 sec^1 × 10^7

## Dns-VIP-(1-20): Dansyl-VIP fragment of amino acids 1-20 formed by tryptase cleavage after Lys-20; peak includes the 1-21 shoulder (Dansyl-HSDAVFTDNYTRLRKQMAVK; UniProt P01282 125-144, looked up, fragment)
[3]; 10 mM CaCl2 vs no addition
  decrease in the kcat/Km ratio: 11 fold
[3]; 150 mM NaCl vs no addition
  decrease in the kcat/Km ratio: 47 fold
  increase in Km: 72 fold
[3]; Addition: 10 mM CaCl2
  Km: 4.5 µM
  Vmax: 2.6 pmol/min/mg
  kcat/Km: 0.13 M^-1 sec^1 × 10^7
[3]; Addition: 150 mM NaCl
  Km: 9.4 µM
  Vmax: 1.1 pmol/min/mg
  kcat/Km: 0.03 M^-1 sec^1 × 10^7
[3]; Addition: None
  Km: 0.1 µM
  Vmax: 0.6 pmol/min/mg
  kcat/Km: 1.4 M^-1 sec^1 × 10^7

## Dns-VIP: N-terminally dansylated vasoactive intestinal peptide (28 amino acids), tryptase substrate (Dansyl-HSDAVFTDNYTRLRKQMAVKKYLNSILN; ends and bridges not checked; also: synthesized on Rink resin (C-terminus not given here))
[3]; 10 mM CaCl2 vs no addition
  decrease in the kcat/Km ratio: ~5 fold
[3]; 150 mM NaCl vs no addition
  decrease in the kcat/Km ratio: 9 fold
  increase in Km: 14 fold
[3]; Addition: 10 mM CaCl2
  Km: 4.7 µM
  Vmax: 8.2 pmol/min/mg
  kcat/Km: 0.4 M^-1 sec^1 × 10^7
[3]; Addition: 150 mM NaCl
  Km: 7.4 µM
  Vmax: 6.6 pmol/min/mg
  kcat/Km: 0.2 M^-1 sec^1 × 10^7
[3]; Addition: None
  Km: 0.5 µM
  Vmax: 4.3 pmol/min/mg
  kcat/Km: 1.8 M^-1 sec^1 × 10^7

## N-terminal domain: N-terminal domain of SLPI, amino acids 1-49, from formic acid cleavage of recombinant SLPI (SGKSFKAGVCPPKKSAQCLRYKKPECQSDWQCPGKKRCCPDTCGIKCLD)
[1]
  Ki: 290 nM
[2]
  Ki: 130 nM
[4]
  Inhibition of trypsin: unable to inhibit
